Assay results reported in BindingDB's records for doi:10.1074/jbc.M113.533562 (Case Western Reserve University, 2014).

Key:
[1] = target: Beta-lactamase OXA-1 (Escherichia coli, UniProt P13661); test: Kinetic Assay; details: pH 7.2
Description: (§1) Steady-state kinetics were performed on an Agilent 8453 diode array spectrophotometer (Palo Alto, CA) in 50 mM sodium phosphate buffer (pH 7.2) supplemented with 20 mM NaHCO3.

[2] = target: Oxa40 (Acinetobacter baumannii, UniProt Q8RLA6); test: Kinetic Assay; details: pH 7.2
Description: as §1

Sequence of Oxa40 (Q8RLA6 whole entry): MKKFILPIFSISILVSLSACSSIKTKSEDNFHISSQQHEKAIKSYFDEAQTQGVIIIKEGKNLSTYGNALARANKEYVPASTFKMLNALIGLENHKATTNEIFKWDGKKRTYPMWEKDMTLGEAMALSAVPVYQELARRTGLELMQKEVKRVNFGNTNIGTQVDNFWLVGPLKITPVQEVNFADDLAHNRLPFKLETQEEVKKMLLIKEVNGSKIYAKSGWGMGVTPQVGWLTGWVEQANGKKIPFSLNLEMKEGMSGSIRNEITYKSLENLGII
Sequence of Beta-lactamase OXA-1 (P13661 whole entry): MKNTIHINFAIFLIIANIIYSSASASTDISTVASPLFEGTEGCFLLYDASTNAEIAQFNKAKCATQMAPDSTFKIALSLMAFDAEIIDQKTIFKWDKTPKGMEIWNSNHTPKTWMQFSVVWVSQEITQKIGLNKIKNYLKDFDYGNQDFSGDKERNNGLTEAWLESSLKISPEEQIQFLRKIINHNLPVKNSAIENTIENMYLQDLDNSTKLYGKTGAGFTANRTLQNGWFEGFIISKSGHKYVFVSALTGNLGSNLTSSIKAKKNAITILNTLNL

Structure (SMILES)	IC50 [1]	Ki [1]	IC50 [2]	Ki [2]
O=C(O)C1=CS[C@@H]2/C(=C\c3cc4n(n3)CSC4)C(=O)N12 [Penem 1]	30 nM	50 nM	150 nM	30 nM
O=C(O)C1=CS[C@@H]2/C(=C\c3cn4c(n3)COCC4)C(=O)N12 [Penem 3]	60 nM	380 nM	160 nM	150 nM
